Among the data in EP0750618B1, “OXAZOLIDINONE DERIVATIVES AND PHARMACEUTICAL COMPOSITIONS CONTAINING THEM” (priority 1994, dated 1995) are MIC and ED50 values, retold here.

Test [1] has as its system Staphylococcus epidermidis (UC 12084). Put plainly: MIC test, standard agar dilution method. Format: cell-based. The note with it: UC12084, incubated overnight at 35°C, read-out: Minimum Inhibitory Concentrations (MIC) S. enidermidis.
For test [2], the system named is Staphylococcus aureus (UC 9213). Briefly: Murine Assay procedure (in vivo), survival after intraperitoneal infection. The note with it: UC9213, 144 h, oral administration one hour and five hours after infection, female mice infected i.p. with S. aureus UC 9213, survival over six days, probit analysis. As for the experimental part:
Groups of female mice (six mice of 18-20 grams each) were injected intraperitoneally with Staphylococcus aureus (UC 9213) bacteria which were thawed just prior to use and suspended in brain heart infusion with 4% brewer's yeast (Staphylococcus aureus) or brain heart infusion (Streptococcus species). Antibiotic treatment at six dose levels per drug (compound) was administered one hour and five hours after infection by either oral intubation or subcutaneous routes. Survival was observed daily for six days. ED50 values based on mortality ratios were calculated using probit analysis.

For the next test, the system named is Staphylococcus aureus. Briefly: MIC test, standard agar dilution method. The note with it: UC9213, read-out: Minimum Inhibitory Concentrations (MIC) S. aureus. (In general: Agar dilution tests growth on a series of plates holding different concentrations.)
Test [3] has as its system Streptococcus pyogenes (UC 152). Briefly: MIC test, standard agar dilution method. Particulars: UC152, read-out: Minimum Inhibitory Concentrations (MIC) S. pyogenes.

As a reminder, the ED50 is the dose at which the effect has come halfway, by size or by number of responders. A higher ED50 goes with a need for a large dose.

Converted amounts (≈) assume the structure as drawn.

Take `COC(=O)NC1CCN(c2ccc(N3C[C@H](CNC(C)=O)OC3=O)cc2F)CC1` [Compound No. 30, (S)-N-{3-[3-fluoro-4-(4-methoxycarbonylamino-piperidin-1-yl)-phenyl]-2-oxo-oxazolidin-5-ylmethyl}-acetamide]: the MIC is 2 µg/mL (≈ 4.9 µM) in test [1], 4 µg/mL (≈ 9.79 µM) in the test on Staphylococcus aureus and 2 µg/mL (≈ 4.9 µM) in test [3]. In test [2], this compound yielded an ED50 of 2.8 mg/kg.

Turning to `COC(=O)NN=C1CCN(c2ccc(N3C[C@H](CNC(C)=O)OC3=O)cc2F)CC1` [Compound No. 31, (S)-N-{3-[3-fluoro-4-(4-methoxycarbonylhydrazono-piperidin-1-yl)-phenyl]-2-oxo-oxazolidin-5-ylmethyl}-acetamide], the MIC came to 0.5 µg/mL (≈ 1.19 µM) in test [1], 2 µg/mL (≈ 4.75 µM) in the test with Staphylococcus aureus and 1 µg/mL (≈ 2.37 µM) in test [3]. This compound also gave an ED50 in test [2] of 5 mg/kg.

In the case of `COCON=C1CCN(c2ccc(N3C[C@H](CNC(C)=O)OC3=O)cc2F)CC1` [compound 60, (S)-N-{3-[3-fluoro-4-(4-methoxymethoxyimino-piperidin-1-yl)-phenyl]-2-oxo-oxazolidin-5-ylmethyl}-acetamide], the MIC came out at 2 µg/mL (≈ 4.9 µM) in test [1], 8 µg/mL (≈ 19.6 µM) in the test on Staphylococcus aureus and 2 µg/mL (≈ 4.9 µM) in test [3].

As for `CC(=O)NC[C@H]1CN(c2ccc(N3CCC4(CC3)OCCN4C(=O)CO)c(F)c2)C(=O)O1` [Compound No. 54, (S)-N-(3-{3-fluoro-4-[4-(2-hydroxy-acetyl)-1-oxa-4,8-diaza-spiro[4.5]dec-8-yl]-phenyl}-2-oxo-oxazolidin-5-ylmethyl)-acetamide], the MIC in test [1] came out at 4 µg/mL (≈ 8.88 µM); in the test with Staphylococcus aureus, 16 µg/mL (≈ 35.5 µM); in test [3] it was 4 µg/mL (≈ 8.88 µM).

In the case of `COCOCC1COC2(CCN(c3ccc(N4C[C@H](CNC(C)=O)OC4=O)cc3F)CC2)O1` (stereo partly drawn) [compound 57, (S)-N-(3-{3-fluoro-4-[2-(methoxymethoxy-methyl)-1,4-dioxa-8-aza-spiro[4.5]dec-8-yl]-phenyl}-2-oxo-oxazolidin-5-ylmethyl)-acetamide], the MIC turned out to be 4 µg/mL (≈ 8.56 µM) in test [1], 16 µg/mL (≈ 34.2 µM) in the test on Staphylococcus aureus and 8 µg/mL (≈ 17.1 µM) in test [3].

With `CC(=O)NC[C@H]1CN(c2ccc(N3CCC(=NNC(=N)N)CC3)c(F)c2)C(=O)O1` [compound 42, (S)-N-{3-[3-fluoro-4-(4-amidinohydrazono-piperidin-1-yl)-phenyl]-2-oxo-oxazolidin-5-ylmethyl}-acetamide], the MIC in test [1] was determined as 2 µg/mL (≈ 4.93 µM); in the test on Staphylococcus aureus, 8 µg/mL (≈ 19.7 µM); in test [3], 0.5 µg/mL (≈ 1.23 µM).

For `CC(=O)NC[C@H]1CN(c2ccc(N3CCC(=NN)CC3)c(F)c2)C(=O)O1` [compound 46, (S)-N-{3-[3-fluoro-4-(4-hydrazono-piperidin-1-yl)-phenyl]-2-oxo-oxazolidin-5-ylmethyl}-acetamide], the MIC was 0.5 µg/mL (≈ 1.38 µM) in test [1], 2 µg/mL (≈ 5.5 µM) in the test with Staphylococcus aureus and 2 µg/mL (≈ 5.5 µM) in test [3].

Turning to `CC(=O)NC[C@H]1CN(c2ccc(N3CCC(=NNC(N)=O)CC3)c(F)c2)C(=O)O1` [compound 39, (S)-N-{3-[3-fluoro-4-(4-semicarbazono-piperidin-1-yl)-phenyl]-2-oxo-oxazolidin-5-ylmethyl}-acetamide], the MIC turned out to be 0.5 µg/mL (≈ 1.23 µM) in test [1], 2 µg/mL (≈ 4.92 µM) with Staphylococcus aureus and 2 µg/mL (≈ 4.92 µM) in test [3].

Consider `CON=C1CCN(c2ccc(N3C[C@H](CNC(C)=O)OC3=O)cc2F)CC1` [Compound No. 29, (S)-N-{3-[3-fluoro-4-(4-methoxyimino-piperidin-1-yl)-phenyl]-2-oxo-oxazolidin-5-ylmethyl}-acetamide], for which the results for the MIC (in test [1]; in the test on Staphylococcus aureus; in test [3]) were 1 µg/mL (≈ 2.64 µM), 4 µg/mL (≈ 10.6 µM) and 4 µg/mL (≈ 10.6 µM), respectively.

Consider `CC(=O)NC[C@H]1CN(c2ccc(N3CCC(=NOC(=O)COCc4ccccc4)CC3)c(F)c2)C(=O)O1` [compound 45, (S)-N-{3-[3-fluoro-4-(4-benzyloxyacetoxyimino-piperidin-1-yl)-phenyl]-2-oxo-oxazolidin-5-ylmethyl}-acetamide], for which the MIC was determined as 0.5 µg/mL (≈ 0.976 µM) in test [1], 2 µg/mL (≈ 3.9 µM) in the test with Staphylococcus aureus and 2 µg/mL (≈ 3.9 µM) in test [3].

`COC(=O)ON=C1CCN(c2ccc(N3C[C@H](CNC(C)=O)OC3=O)cc2F)CC1` [compound 38, (S)-N-{3-[3-fluoro-4-(4-methoxycarbonyloxyimino-piperidin-1-yl)-phenyl]-2-oxo-oxazolidin-5-ylmethyl}-acetamide]: the MIC in test [1] came to 0.5 µg/mL (≈ 1.18 µM); in the test on Staphylococcus aureus, 2 µg/mL (≈ 4.73 µM); in test [3], 1 µg/mL (≈ 2.37 µM).

For the compound `CC(=O)NC[C@H]1CN(c2ccc(N3CCC(CC4(C)OCCO4)CC3)c(F)c2)C(=O)O1` [Compound No. 32, (S)-N-(3-{3-fluoro-4-[4-(2-methyl-[1,3]dioxolan-2-ylmethyl)-piperidin-1-yl]-phenyl}-2-oxo-oxazolidin-5-ylmethyl)-acetamide], the values for the MIC (in test [1]; in the test with Staphylococcus aureus; in test [3]) were 4 µg/mL (≈ 9.18 µM), 16 µg/mL (≈ 36.7 µM) and 4 µg/mL (≈ 9.18 µM), respectively.

As for `CC(=O)NC[C@H]1CN(c2ccc(N3CCC(=O)C(CO)C3)c(F)c2)C(=O)O1` (stereo partly drawn) [Compound No. 37, (S)-N-{3-[3-fluoro-4-(3-hydroxymethyl-4-oxo-piperidin-1-yl)-phenyl]-2-oxo-oxazolidin-5-ylmethyl}-acetamide], the MIC in test [1] came to 2 µg/mL (≈ 5.27 µM); in the test with Staphylococcus aureus it was 8 µg/mL (≈ 21.1 µM); in test [3], 2 µg/mL (≈ 5.27 µM).

In the case of `CC(=O)NC[C@H]1CN(c2ccc(N3CCC4(CC3)OCCO4)c(F)c2)C(=O)O1` [compound 28, (S)-N-{3-[4-(1,4-dioxa-8-aza-sprio[4.5]dec-8-yl)-3-fluoro-phenyl]-2-oxo-oxazolidin-5-ylmethyl}-acetamide], the values for the MIC (in test [1]; in the test on Staphylococcus aureus; in test [3]) were 2 µg/mL (≈ 5.08 µM), 8 µg/mL (≈ 20.3 µM) and 4 µg/mL (≈ 10.2 µM), respectively.

On to `CC(=O)NC[C@H]1CN(c2ccc(N3CCC(=NNC(=O)CO)CC3)c(F)c2)C(=O)O1` [compound 50, (S)-N-[3-(3-fluoro-4-{4-[(2-hydroxy-acetyl)-hydrazono]-piperidin-1-yl}-phenyl)-2-oxo-oxazolidin-5-ylmethyl]-acetamide], for which the MIC stood at 4 µg/mL (≈ 9.49 µM) in test [1], 16 µg/mL (≈ 38 µM) with Staphylococcus aureus and 4 µg/mL (≈ 9.49 µM) in test [3].

`C=CCON=C1CCN(c2ccc(N3C[C@H](CNC(C)=O)OC3=O)cc2F)CC1` [Compound No. 58, (S)-N-{3-[4-(4-allyloxyimino-piperidin-1-yl)-3-fluoro-phenyl]-2-oxo-oxazolidin-5-ylmethyl}-acetamide]: the MIC in test [1] turned out to be 1 µg/mL (≈ 2.47 µM); with Staphylococcus aureus it was 8 µg/mL (≈ 19.8 µM); in test [3] it was 2 µg/mL (≈ 4.95 µM).

Regarding `CC(=O)NC[C@H]1CN(c2ccc(N3CCC(N(C)C)CC3)c(F)c2)C(=O)O1` [Compound No. 67, (S)-N-{3-[4-(4-dimethylamino-piperidin-1-yl)-3-fluoro-phenyl]-2-oxo-oxazolidin-5-ylmethyl}-acetamide], the MIC in test [1] was 2 µg/mL (≈ 5.28 µM); in the test with Staphylococcus aureus, 32 µg/mL (≈ 84.6 µM); in test [3], 1 µg/mL (≈ 2.64 µM).

For the compound `CC(=O)CC1CCN(c2ccc(N3C[C@H](CNC(C)=O)OC3=O)cc2F)CC1` [compound 33, (S)-N-(3-{3-fluoro-4-[4-(2-oxo-propyl)-piperidin-1-yl]-phenyl}-2-oxo-oxazolidin-5-ylmethyl)-acetamide], the MIC was 2 µg/mL (≈ 5.11 µM) in test [1], 8 µg/mL (≈ 20.4 µM) in the test on Staphylococcus aureus and 2 µg/mL (≈ 5.11 µM) in test [3].

Take `CC(=O)NC[C@H]1CN(c2ccc(N3CCC(=NOCC(O)CO)CC3)c(F)c2)C(=O)O1` (stereo partly drawn) [Compound No. 62, (S)-N-(3-{4-[4-(2,3-dihydroxy-propoxyimino)-piperidin-1-yl]-3-fluorophenyl}-2-oxo-oxazolidin-5-ylmethyl)-acetamide]: the MIC in test [1] was 1 µg/mL (≈ 2.28 µM); with Staphylococcus aureus, 8 µg/mL (≈ 18.2 µM); in test [3], 2 µg/mL (≈ 4.56 µM).
